Tests used:
ErbB4 = target: T1, ErbB4 (Homo sapiens, UniProt Q15303); assay: Kinome profiler screen; format: biochemical; conditions: at 20,000 nM inhibitor; kinase activity remaining
T1 construct: purchased Millipore KinaseProfiler

FGFR2(N549H) = target: T2, FGFR2(N549H) (Homo sapiens, UniProt P21802, N549H); assay: Kinome profiler screen; format: biochemical; conditions: at 20,000 nM inhibitor; kinase activity remaining
T2 construct: purchased Millipore KinaseProfiler

Met(D1246N) = target: T3, Met(D1246N) (Homo sapiens, UniProt P08581, D1228N); assay: Kinome profiler screen; format: biochemical; conditions: at 20,000 nM inhibitor; kinase activity remaining
T3 construct: purchased Millipore KinaseProfiler

PAR-1Bα = target: T4, PAR-1Bα (Homo sapiens, UniProt Q7KZI7); assay: Kinome profiler screen; format: biochemical; conditions: at 20,000 nM inhibitor; kinase activity remaining
T4 construct: purchased Millipore KinaseProfiler

Tie2 = target: T5, Tie2 (Homo sapiens, UniProt Q02763); assay: Kinome profiler screen; format: biochemical; conditions: at 20,000 nM inhibitor; kinase activity remaining
T5 construct: purchased Millipore KinaseProfiler

TSSK2 = target: T6, TSSK2 (Homo sapiens, UniProt Q96PF2); assay: Kinome profiler screen; format: biochemical; conditions: at 20,000 nM inhibitor; kinase activity remaining
T6 construct: purchased Millipore KinaseProfiler

mTOR = target: T7, mTOR (Homo sapiens, UniProt P42345); assay: Kinome profiler screen; format: biochemical; conditions: at 20,000 nM inhibitor; kinase activity remaining
T7 construct: purchased Millipore KinaseProfiler

AMPKα1 = target: T8, AMPKα1 (Homo sapiens, UniProt Q13131); assay: Kinome profiler screen; format: biochemical; conditions: at 20,000 nM inhibitor; kinase activity remaining
T8 construct: purchased Millipore KinaseProfiler

Lck activated = target: T9, Lck activated (Homo sapiens, UniProt P06239); assay: Kinome profiler screen; format: biochemical; conditions: at 20,000 nM inhibitor; kinase activity remaining
T9 construct: purchased Millipore KinaseProfiler
T9 sequence (P06239 whole entry): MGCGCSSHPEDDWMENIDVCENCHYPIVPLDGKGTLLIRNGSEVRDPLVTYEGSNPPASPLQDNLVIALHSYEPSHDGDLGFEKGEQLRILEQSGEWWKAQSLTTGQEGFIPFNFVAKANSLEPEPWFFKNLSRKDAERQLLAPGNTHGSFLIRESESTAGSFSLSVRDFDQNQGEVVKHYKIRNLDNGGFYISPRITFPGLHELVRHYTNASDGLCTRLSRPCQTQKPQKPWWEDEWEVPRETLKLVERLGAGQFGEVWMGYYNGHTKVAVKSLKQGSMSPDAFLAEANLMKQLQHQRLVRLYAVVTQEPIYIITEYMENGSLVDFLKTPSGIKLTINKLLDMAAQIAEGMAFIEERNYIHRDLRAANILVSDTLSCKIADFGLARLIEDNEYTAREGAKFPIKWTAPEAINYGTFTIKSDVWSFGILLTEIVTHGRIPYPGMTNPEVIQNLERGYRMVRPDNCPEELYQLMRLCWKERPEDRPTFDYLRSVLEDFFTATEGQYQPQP

CDK3/cyclinE = target: T10, CDK3/cyclinE (Homo sapiens, UniProt Q00526); assay: Kinome profiler screen; format: biochemical; conditions: at 20,000 nM inhibitor; kinase activity remaining
T10 construct: purchased Millipore KinaseProfiler
T10 sequence (Q00526 whole entry): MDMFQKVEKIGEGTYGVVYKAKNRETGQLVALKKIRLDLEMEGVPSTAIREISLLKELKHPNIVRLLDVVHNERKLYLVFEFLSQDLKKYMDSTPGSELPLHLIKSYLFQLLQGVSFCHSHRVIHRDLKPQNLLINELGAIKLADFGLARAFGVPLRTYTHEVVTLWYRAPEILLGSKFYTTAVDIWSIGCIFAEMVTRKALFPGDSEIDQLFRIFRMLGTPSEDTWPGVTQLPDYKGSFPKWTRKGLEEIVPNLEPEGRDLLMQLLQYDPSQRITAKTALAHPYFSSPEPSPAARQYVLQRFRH
T10 sequence (P24864 whole entry partner): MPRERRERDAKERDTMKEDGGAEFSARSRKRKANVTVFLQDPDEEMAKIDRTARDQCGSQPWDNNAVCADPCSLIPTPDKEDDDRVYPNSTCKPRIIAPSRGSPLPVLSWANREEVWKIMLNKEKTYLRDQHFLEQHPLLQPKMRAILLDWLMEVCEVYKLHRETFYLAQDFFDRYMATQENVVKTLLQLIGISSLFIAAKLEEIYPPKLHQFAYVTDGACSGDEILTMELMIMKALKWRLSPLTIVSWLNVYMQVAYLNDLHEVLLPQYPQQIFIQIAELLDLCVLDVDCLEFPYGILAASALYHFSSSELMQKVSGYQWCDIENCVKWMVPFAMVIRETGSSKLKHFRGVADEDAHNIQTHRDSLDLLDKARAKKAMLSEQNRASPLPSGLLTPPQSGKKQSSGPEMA

GCK = target: T11, GCK (Homo sapiens, UniProt Q12851); assay: Kinome profiler screen; format: biochemical; conditions: at 20,000 nM inhibitor; kinase activity remaining
T11 construct: purchased Millipore KinaseProfiler

MKK4(m) = target: T12, MKK4(m) (Mus musculus, UniProt P47809); assay: Kinome profiler screen; format: biochemical; conditions: at 20,000 nM inhibitor; kinase activity remaining
T12 construct: purchased Millipore KinaseProfiler

BRK = target: T13, BRK (Homo sapiens, UniProt Q13882); assay: Kinome profiler screen; format: biochemical; conditions: at 20,000 nM inhibitor; kinase activity remaining
T13 construct: purchased Millipore KinaseProfiler

GRK5 = target: T14, GRK5 (Homo sapiens, UniProt P34947); assay: Kinome profiler screen; format: biochemical
T14 construct: purchased Millipore KinaseProfiler

PIP5K1α = target: T15, PIP5K1α (Homo sapiens, UniProt Q99755); assay: Kinome profiler screen; format: biochemical; conditions: at 20,000 nM inhibitor; kinase activity remaining
T15 construct: purchased Millipore KinaseProfiler

PKBβ = target: T16, PKBβ (Homo sapiens, UniProt P31751); assay: Kinome profiler screen; format: biochemical; conditions: at 20,000 nM inhibitor; kinase activity remaining
T16 construct: purchased Millipore KinaseProfiler

Rsk1 = target: T17, Rsk1 (Homo sapiens, UniProt Q15418); assay: Kinome profiler screen; format: biochemical; conditions: at 20,000 nM inhibitor; kinase activity remaining
T17 construct: purchased Millipore KinaseProfiler

Rsk3 = target: T18, Rsk3 (Homo sapiens, UniProt Q15349); assay: Kinome profiler screen; format: biochemical; conditions: at 20,000 nM inhibitor; kinase activity remaining
T18 construct: purchased Millipore KinaseProfiler

[1] = target: T19, PI3 Kinase (p110δ/p85α)(m) (Mus musculus, UniProt O35904); assay: Kinome profiler screen; format: biochemical; conditions: at 20,000 nM inhibitor; kinase activity remaining
T19 construct: purchased Millipore KinaseProfiler

PDGFRα(V561D) = target: T20, PDGFRα(V561D) (Homo sapiens, UniProt P16234, V561D); assay: Kinome profiler screen; format: biochemical
T20 construct: purchased Millipore KinaseProfiler

HIPK2 = target: T21, HIPK2 (Homo sapiens, UniProt Q9H2X6); assay: Kinome profiler screen; format: biochemical; conditions: at 20,000 nM inhibitor; kinase activity remaining
T21 construct: purchased Millipore KinaseProfiler

Met(D1246H) = target: T22, Met(D1246H) (Homo sapiens, UniProt P08581, D1228H); assay: Kinome profiler screen; format: biochemical; conditions: at 20,000 nM inhibitor; kinase activity remaining
T22 construct: purchased Millipore KinaseProfiler

EphA5 = target: T23, EphA5 (Homo sapiens, UniProt P54756); assay: Kinome profiler screen; format: biochemical; conditions: at 20,000 nM inhibitor; kinase activity remaining
T23 construct: purchased Millipore KinaseProfiler

DCAMKL2 = target: T24, DCAMKL2 (Homo sapiens, UniProt Q8N568); assay: Kinome profiler screen; format: biochemical; conditions: at 20,000 nM inhibitor; kinase activity remaining
T24 construct: purchased Millipore KinaseProfiler

EphA7 = target: T25, EphA7 (Homo sapiens, UniProt Q15375); assay: Kinome profiler screen; format: biochemical
T25 construct: purchased Millipore
T25 sequence (Q15375 28-998): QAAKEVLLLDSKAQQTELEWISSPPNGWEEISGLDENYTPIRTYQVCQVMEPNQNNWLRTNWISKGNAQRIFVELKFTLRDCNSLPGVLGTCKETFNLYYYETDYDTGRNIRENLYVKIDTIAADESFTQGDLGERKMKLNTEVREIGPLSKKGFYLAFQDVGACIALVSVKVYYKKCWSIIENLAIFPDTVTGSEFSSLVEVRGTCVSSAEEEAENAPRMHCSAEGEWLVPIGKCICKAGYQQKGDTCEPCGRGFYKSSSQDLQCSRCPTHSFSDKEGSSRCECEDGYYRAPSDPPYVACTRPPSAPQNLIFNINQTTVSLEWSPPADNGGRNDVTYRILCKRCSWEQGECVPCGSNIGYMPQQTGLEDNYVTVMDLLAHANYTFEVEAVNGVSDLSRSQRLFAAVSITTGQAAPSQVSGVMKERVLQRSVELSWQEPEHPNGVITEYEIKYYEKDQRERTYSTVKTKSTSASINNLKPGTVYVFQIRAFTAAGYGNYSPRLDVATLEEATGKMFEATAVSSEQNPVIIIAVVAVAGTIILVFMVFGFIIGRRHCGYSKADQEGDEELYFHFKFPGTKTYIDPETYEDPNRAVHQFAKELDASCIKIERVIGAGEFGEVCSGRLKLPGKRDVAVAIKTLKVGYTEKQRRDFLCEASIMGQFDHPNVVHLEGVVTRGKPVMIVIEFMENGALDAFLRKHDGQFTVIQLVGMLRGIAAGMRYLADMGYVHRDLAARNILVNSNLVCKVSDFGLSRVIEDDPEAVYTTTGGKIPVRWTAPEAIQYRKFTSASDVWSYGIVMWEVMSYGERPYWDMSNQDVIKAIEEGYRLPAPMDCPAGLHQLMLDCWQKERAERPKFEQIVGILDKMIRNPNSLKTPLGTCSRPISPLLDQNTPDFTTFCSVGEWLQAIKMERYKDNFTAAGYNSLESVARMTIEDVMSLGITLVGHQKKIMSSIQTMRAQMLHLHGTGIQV

PKCβII = target: T26, PKCβII (Homo sapiens, UniProt P05771); assay: Kinome profiler screen; format: biochemical; conditions: at 20,000 nM inhibitor; kinase activity remaining
T26 construct: purchased Millipore KinaseProfiler

PKCγ = target: T27, PKCγ (Homo sapiens, UniProt P05129); assay: Kinome profiler screen; format: biochemical; conditions: at 20,000 nM inhibitor; kinase activity remaining
T27 construct: purchased Millipore KinaseProfiler

Ret(V804M) = target: T28, Ret(V804M) (Homo sapiens, UniProt P07949, V804M); assay: Kinome profiler screen; format: biochemical; conditions: at 20,000 nM inhibitor; kinase activity remaining
T28 construct: purchased Millipore KinaseProfiler

ZAP-70 = target: T29, ZAP-70 (Homo sapiens, UniProt P43403); assay: Kinome profiler screen; format: biochemical; conditions: at 20,000 nM inhibitor; kinase activity remaining
T29 construct: purchased Millipore KinaseProfiler

PhKγ2 = target: T30, PhKγ2 (Homo sapiens, UniProt P15735); assay: Kinome profiler screen; format: biochemical; conditions: at 20,000 nM inhibitor; kinase activity remaining
T30 construct: purchased Millipore KinaseProfiler

IKKβ = target: T31, IKKβ (Homo sapiens, UniProt O14920); assay: Kinome profiler screen; format: biochemical; conditions: at 20,000 nM inhibitor; kinase activity remaining
T31 construct: purchased Millipore KinaseProfiler

Abl(Y253F) = target: T32, Abl(Y253F) (Homo sapiens, UniProt P00519, Y253F); assay: Kinome profiler screen; format: biochemical; conditions: at 20,000 nM inhibitor; kinase activity remaining
T32 construct: purchased Millipore KinaseProfiler

PIP5K1γ = target: T33, PIP5K1γ (Homo sapiens, UniProt O60331); assay: Kinome profiler screen; format: biochemical; conditions: at 20,000 nM inhibitor; kinase activity remaining
T33 construct: purchased Millipore KinaseProfiler

BrSK2 = target: T34, BrSK2 (Homo sapiens, UniProt Q8IWQ3); assay: Kinome profiler screen; format: biochemical; conditions: at 20,000 nM inhibitor; kinase activity remaining
T34 construct: purchased Millipore KinaseProfiler

TAO2 = target: T35, TAO2 (Homo sapiens, UniProt Q9UL54); assay: Kinome profiler screen; format: biochemical; conditions: at 20,000 nM inhibitor; kinase activity remaining
T35 construct: purchased Millipore KinaseProfiler
T35 sequence (Q9UL54 whole entry): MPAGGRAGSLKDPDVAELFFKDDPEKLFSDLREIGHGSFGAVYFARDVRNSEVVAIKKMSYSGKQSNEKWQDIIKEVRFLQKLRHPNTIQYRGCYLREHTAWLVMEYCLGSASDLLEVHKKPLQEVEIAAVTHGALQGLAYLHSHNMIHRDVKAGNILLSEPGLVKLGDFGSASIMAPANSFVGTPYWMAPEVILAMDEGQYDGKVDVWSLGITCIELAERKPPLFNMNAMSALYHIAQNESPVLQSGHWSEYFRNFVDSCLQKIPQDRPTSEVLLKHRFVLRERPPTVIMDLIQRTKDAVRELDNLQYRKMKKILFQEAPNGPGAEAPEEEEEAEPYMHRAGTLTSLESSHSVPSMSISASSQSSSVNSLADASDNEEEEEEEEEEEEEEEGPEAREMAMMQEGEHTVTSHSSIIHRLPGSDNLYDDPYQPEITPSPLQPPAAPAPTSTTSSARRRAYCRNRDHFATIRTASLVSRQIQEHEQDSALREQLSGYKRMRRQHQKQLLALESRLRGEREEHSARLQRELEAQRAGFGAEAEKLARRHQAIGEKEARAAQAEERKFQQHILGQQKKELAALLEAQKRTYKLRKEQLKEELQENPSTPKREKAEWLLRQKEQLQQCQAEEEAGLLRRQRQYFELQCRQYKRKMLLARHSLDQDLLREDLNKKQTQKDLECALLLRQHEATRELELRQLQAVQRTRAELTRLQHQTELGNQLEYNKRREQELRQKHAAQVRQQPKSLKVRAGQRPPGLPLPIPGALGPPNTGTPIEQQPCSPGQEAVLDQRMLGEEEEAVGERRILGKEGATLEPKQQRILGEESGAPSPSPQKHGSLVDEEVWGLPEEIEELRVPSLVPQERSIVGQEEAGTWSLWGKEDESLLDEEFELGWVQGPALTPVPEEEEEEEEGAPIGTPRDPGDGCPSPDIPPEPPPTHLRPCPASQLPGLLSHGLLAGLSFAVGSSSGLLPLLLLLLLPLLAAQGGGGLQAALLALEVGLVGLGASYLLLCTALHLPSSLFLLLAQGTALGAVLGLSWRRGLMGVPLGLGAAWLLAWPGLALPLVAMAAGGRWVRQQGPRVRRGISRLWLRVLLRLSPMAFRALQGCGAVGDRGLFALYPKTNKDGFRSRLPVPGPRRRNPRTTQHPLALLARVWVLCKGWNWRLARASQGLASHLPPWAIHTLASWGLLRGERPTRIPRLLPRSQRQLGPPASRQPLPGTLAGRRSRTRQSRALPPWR

ACK1 = target: T36, ACK1 (Homo sapiens, UniProt Q07912); assay: Kinome profiler screen; format: biochemical; conditions: at 20,000 nM inhibitor; kinase activity remaining
T36 construct: purchased Millipore KinaseProfiler

FGFR4 = target: T37, FGFR4 (Homo sapiens, UniProt P22455); assay: Kinome profiler screen; format: biochemical; conditions: at 20,000 nM inhibitor; kinase activity remaining
T37 construct: purchased Millipore KinaseProfiler

BV-2 microglial cells = assay: cells; format: cell-based, murine; conditions: BV-2 cells
CK2 = target: T38, CK2 (Homo sapiens, UniProt P68400); assay: Kinome profiler screen; format: biochemical; conditions: at 20,000 nM inhibitor; kinase activity remaining
T38 construct: purchased Millipore KinaseProfiler

PKCβI = target: T39, PKCβI (Homo sapiens, UniProt P05771); assay: Kinome profiler screen; format: biochemical; conditions: at 20,000 nM inhibitor; kinase activity remaining
T39 construct: purchased Millipore KinaseProfiler
T39 sequence (P05771 whole entry): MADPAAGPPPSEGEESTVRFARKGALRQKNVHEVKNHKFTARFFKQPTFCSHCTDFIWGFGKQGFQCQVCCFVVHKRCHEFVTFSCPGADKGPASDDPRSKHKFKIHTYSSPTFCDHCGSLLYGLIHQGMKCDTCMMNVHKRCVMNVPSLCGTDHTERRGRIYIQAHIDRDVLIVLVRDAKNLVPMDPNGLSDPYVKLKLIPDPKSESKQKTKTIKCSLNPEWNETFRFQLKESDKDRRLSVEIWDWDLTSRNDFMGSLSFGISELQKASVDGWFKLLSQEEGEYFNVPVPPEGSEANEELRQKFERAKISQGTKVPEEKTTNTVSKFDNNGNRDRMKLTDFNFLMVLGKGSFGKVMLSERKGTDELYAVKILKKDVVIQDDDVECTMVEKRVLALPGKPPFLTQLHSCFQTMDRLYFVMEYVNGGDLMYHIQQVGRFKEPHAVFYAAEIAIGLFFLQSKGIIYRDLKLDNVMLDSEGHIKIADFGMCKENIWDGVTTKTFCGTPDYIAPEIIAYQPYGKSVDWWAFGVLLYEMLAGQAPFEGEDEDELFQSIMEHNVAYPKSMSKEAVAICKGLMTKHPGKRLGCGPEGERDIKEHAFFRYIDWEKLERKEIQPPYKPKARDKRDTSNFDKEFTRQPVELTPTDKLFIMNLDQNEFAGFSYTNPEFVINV

[2] = system: IL-1β levels in brain cortex; assay: LPS-induced brain IL-1β in vivo; parameters: species or system C57Bl/6 mice; conditions: 20 mg/Kg oral gavage 1 hr before LPS 0.5 mg/kg i.p.; brain cortex at 6 hrs
PI3 Kinase (p120γ) = target: T40, PI3 Kinase (p120γ) (Homo sapiens, UniProt P48736); assay: Kinome profiler screen; format: biochemical; conditions: at 20,000 nM inhibitor; kinase activity remaining
T40 construct: purchased Millipore KinaseProfiler

## CN(C)c1cc(-c2ccncc2)c(-c2ccc3ccccc3c2)nn1 [MW108, N, N-dimethyl-6-(naphthalen-2-yl)-5-(pyridin-4-yl)pyridazin-3-amine]
ErbB4
  activity at 20 µM: 52%
FGFR2(N549H)
  activity at 20 µM: 76%
Met(D1246N)
  activity at 20 µM: 80%
PAR-1Bα
  activity at 20 µM: 97%
Tie2
  activity at 20 µM: 81%
TSSK2
  activity at 20 µM: 101%
mTOR
  activity at 20 µM: 92%
AMPKα1
  activity at 20 µM: 101%
Lck activated
  activity at 20 µM: 70%
CDK3/cyclinE
  activity at 20 µM: 91%
GCK
  activity at 20 µM: 101%
MKK4(m)
  activity at 20 µM: 108%
BRK
  activity at 20 µM: 85%
GRK5
  activity at 20 µM: 110%
PIP5K1α
  activity at 20 µM: 104%
PKBβ
  activity at 20 µM: 98%
Rsk1
  activity at 20 µM: 93%
Rsk3
  activity at 20 µM: 83%
[1]
  activity at 20 µM: 100%
PDGFRα(V561D)
  activity at 20 µM: 114%
HIPK2
  activity at 20 µM: 107%
Met(D1246H)
  activity at 20 µM: 94%
EphA5
  activity at 20 µM: 100%
DCAMKL2
  activity at 20 µM: 109%
EphA7
  IC50: 18.9 µM
EphA7; at 20,000 nM inhibitor, kinase activity remaining
  activity at 20 µM: 35%
PKCβII
  activity at 20 µM: 87%
PKCγ
  activity at 20 µM: 93%
Ret(V804M)
  activity at 20 µM: 85%
ZAP-70
  activity at 20 µM: 92%
PhKγ2
  activity at 20 µM: 98%
IKKβ
  activity at 20 µM: 98%
Abl(Y253F)
  activity at 20 µM: 98%
PIP5K1γ
  activity at 20 µM: 104%
BrSK2
  activity at 20 µM: 88%
TAO2
  activity at 20 µM: 81%
ACK1
  activity at 20 µM: 100%
FGFR4
  activity at 20 µM: 89%
BV-2 microglial cells; LPS
  LPS-induced IL-1β production: inhibited LPS-induced IL-1β production in a concentration-dependent manner
BV-2 microglial cells; Mus musculus, 100 ng/ml LPS, 18 hrs, read-out: IC50, inhibition of IL-1β overproduction
  IC50: 610 ± 20 nM
CK2
  activity at 20 µM: 106%
PKCβI
  activity at 20 µM: 92%
[2]
  LPS-induced IL-1β levels in vivo: suppressed LPS-induced IL-1β levels in vivo
PI3 Kinase (p120γ)
  activity at 20 µM: 101%

Source: article PMC3694096, “Development of Novel In Vivo Chemical Probes to Address CNS Protein Kinase Involvement in Synaptic Dysfunction” (PLoS ONE, 2013)
